Measurements as given in US12097202B2 (Kadmon Corporation, LLC, priority 2022, dated 2024).

How the values were obtained:
[1] = molecular target: T1, CYP2D6 (Homo sapiens, UniProt P10635); test: In vitro metabolism by CYP2D6; type: in vitro ADME
[2] = system: bacterial mutagenicity (Ames); test: in vitro bacterial mutagenicity (Ames) assay; type: cell-based
[3] = system: patients with chronic GVHD; conditions: human, in vivo;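 also: allogeneic HCT recipients aged ≥12 years with persistent cGVHD after two to five earlier systemic treatment lines, responses judged by site investigators, 12-month analysis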
From the text: Concomitant treatment with supportive care therapies for chronic GVHD was permitted. […] Initiation of new systemic chronic GVHD therapy while on study was not permitted.
Eligible subjects were allogeneic hematopoietic cell transplant recipients aged ≥12 years with persistent cGVHD manifestations after receiving 2 to 5 prior systemic lines of therapy. Subjects were required to be receiving stable corticosteroid therapy for 2 weeks prior to screening and to have a Karnofsky or Lansky Performance Status Scale score≥60. Certain concurrent immunosuppressive medications were allowed because drug-drug interactions were not anticipated.
Randomization was stratified (1:1) by cGVHD severity and prior exposure to ibrutinib.
All responses were assessed by the study site investigators. Secondary end points included duration of response (DOR), time to response, changes in LSS summary score, failure-free survival (FFS), corticosteroid dose reductions, and overall survival (OS). DOR was measured from the time of initial PR or CR until documented progression from best response of cGVHD, time from initial response to start of additional systemic cGVHD therapy, or death. The 7-day LSS summary score was calculated based on the developer recommendations and was compared with the score from baseline; an improvement ≥7 points was considered clinically meaningful. […] Relative dose intensity (RDI) was used as a surrogate measure of drug tolerability and was defined as actual dose intensity/planned dose intensity, where dose intensity was defined as the cumulative dose over the duration of exposure (mg/d). Actual dose intensity captured the sum of actual doses received over the duration of exposure and incorporated dose reductions and/or interruptions.
The Hochberg procedure was used for multiplicity adjustment for the primary end point of best ORR. […] CI was calculated using the Clopper-Pearson interval (exact) method.

[4] = molecular target: T2, UGT1A1 (Homo sapiens, UniProt P22309); test: In vitro enzyme inhibition, UGT1A1; type: in vitro ADME
T2 sequence (P22309 26-533): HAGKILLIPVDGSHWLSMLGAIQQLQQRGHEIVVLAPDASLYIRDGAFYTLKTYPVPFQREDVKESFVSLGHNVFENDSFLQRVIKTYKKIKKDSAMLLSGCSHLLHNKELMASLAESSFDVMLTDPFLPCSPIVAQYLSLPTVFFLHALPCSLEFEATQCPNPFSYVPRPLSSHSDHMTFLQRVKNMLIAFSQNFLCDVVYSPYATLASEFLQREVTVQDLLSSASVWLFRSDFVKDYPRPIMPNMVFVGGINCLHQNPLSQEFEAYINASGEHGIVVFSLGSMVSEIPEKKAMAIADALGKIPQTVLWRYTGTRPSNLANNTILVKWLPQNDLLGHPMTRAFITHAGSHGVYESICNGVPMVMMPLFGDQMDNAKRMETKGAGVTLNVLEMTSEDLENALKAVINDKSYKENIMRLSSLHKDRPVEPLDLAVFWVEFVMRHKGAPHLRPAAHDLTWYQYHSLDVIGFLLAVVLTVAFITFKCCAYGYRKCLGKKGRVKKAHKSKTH

[5] = molecular target: T3, BCRP (Homo sapiens, UniProt Q9UNQ0); test: In vitro transporter study, BCRP; type: in vitro ADME; conditions: at clinically relevant concentrations
T3 sequence (Q9UNQ0 1-655): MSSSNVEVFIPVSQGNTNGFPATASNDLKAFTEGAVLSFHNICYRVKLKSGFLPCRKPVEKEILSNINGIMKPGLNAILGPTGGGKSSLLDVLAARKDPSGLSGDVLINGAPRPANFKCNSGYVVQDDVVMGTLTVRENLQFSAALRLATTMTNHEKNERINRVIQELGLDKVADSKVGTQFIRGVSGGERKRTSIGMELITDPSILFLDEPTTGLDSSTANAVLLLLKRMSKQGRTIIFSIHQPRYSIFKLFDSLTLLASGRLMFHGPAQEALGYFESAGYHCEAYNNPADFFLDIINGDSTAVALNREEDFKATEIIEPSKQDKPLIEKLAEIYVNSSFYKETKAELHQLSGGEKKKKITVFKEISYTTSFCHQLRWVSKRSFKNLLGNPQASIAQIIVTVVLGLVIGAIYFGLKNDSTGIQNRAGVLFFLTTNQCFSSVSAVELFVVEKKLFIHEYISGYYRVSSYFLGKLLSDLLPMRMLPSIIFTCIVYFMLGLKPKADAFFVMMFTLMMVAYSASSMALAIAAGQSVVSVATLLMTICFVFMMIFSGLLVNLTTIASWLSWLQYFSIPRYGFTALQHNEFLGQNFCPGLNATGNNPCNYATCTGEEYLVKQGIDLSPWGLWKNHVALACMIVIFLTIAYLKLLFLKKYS

[6] = system: rat bone marrow; test: in vivo rat bone marrow micronucleus assay
[7] = molecular target: P-gp (Homo sapiens, UniProt P08183); test: In vitro transporter study, P-gp; type: in vitro ADME
[8] = molecular target: T4, UGT1A9 (Homo sapiens, UniProt O60656); test: In vitro enzyme inhibition, UGT1A9; type: in vitro ADME
T4 sequence (O60656 26-530): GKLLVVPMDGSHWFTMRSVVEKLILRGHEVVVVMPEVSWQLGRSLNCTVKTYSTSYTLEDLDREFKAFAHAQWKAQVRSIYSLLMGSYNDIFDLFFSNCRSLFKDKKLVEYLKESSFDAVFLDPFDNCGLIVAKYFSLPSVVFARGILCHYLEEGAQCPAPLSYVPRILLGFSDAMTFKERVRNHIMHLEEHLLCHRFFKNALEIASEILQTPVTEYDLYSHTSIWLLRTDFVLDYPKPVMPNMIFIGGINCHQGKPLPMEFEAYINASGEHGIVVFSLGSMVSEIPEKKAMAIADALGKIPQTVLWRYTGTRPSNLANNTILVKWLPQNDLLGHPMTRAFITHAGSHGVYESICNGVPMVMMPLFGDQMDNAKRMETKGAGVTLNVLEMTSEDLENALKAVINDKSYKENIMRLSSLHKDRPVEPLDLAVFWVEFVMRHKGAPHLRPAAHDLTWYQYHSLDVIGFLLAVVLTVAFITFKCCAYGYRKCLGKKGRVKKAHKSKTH

[9] = molecular target: CYP2C19 (Homo sapiens, UniProt P33261); test: In vitro enzyme inhibition, CYP2C19; type: in vitro ADME
[10] = system: pregnant rats; test: Embryo-fetal development studies in rats; type: in vivo, rat; conditions: oral, organogenesis, pilot study
Experimental: In the pilot study, maternal toxicity and embryo-fetal developmental effects were observed. Maternal toxicity (reduced body weight gain) occurred at 150 and 300 mg/kg/day doses. Increased post-implantation loss occurred at 50 and 300 mg/kg/day.

[11] = molecular target: T1, CYP2D6; test: In vitro enzyme inhibition, CYP2D6; type: in vitro ADME

Sequence of P-gp (P08183 whole entry): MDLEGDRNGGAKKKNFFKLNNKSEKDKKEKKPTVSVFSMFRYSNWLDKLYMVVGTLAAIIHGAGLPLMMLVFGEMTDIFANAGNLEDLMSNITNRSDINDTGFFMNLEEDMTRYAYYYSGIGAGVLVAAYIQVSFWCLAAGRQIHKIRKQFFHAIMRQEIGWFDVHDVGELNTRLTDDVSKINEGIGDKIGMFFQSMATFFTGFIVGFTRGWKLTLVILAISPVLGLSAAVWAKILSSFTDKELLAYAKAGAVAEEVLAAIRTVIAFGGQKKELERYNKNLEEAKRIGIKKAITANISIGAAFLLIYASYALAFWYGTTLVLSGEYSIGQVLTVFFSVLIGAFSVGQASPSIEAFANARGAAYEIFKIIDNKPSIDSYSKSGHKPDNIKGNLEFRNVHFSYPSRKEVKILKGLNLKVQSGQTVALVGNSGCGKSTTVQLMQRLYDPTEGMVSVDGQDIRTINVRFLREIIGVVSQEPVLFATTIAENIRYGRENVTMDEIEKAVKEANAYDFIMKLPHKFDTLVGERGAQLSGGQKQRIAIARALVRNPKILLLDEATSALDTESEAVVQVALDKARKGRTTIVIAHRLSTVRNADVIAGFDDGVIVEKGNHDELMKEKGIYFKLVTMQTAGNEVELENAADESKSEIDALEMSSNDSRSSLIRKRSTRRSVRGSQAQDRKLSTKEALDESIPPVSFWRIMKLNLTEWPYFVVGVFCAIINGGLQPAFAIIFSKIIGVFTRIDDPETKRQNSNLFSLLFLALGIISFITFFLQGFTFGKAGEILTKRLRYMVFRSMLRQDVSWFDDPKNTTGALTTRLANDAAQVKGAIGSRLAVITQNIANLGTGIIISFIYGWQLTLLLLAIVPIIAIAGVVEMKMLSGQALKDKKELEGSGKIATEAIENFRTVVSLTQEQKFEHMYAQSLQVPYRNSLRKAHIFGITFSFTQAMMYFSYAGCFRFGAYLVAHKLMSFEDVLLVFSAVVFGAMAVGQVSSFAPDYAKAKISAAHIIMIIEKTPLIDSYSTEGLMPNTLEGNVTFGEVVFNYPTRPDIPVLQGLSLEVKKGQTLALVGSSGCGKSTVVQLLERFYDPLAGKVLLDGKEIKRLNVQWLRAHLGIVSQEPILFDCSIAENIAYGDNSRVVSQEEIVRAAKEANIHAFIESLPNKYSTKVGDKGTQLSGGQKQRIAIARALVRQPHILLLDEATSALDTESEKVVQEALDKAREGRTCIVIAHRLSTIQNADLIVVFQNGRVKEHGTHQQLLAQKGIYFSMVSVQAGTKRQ
T1 sequence (P10635 whole entry): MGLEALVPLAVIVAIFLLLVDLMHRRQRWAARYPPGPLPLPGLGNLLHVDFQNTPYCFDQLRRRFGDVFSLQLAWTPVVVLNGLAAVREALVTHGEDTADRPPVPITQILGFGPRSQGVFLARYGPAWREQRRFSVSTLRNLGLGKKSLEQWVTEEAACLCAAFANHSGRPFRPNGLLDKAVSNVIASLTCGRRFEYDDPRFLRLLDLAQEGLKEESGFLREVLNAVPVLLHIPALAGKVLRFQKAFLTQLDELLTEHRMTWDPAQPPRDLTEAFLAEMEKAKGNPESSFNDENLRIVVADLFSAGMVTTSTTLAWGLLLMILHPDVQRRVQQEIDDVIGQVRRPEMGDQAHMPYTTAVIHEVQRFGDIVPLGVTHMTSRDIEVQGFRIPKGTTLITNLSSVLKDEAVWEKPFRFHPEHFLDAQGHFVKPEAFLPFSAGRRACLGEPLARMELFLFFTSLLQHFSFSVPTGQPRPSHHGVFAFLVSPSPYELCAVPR
Sequence of CYP2C19 (P33261 whole entry): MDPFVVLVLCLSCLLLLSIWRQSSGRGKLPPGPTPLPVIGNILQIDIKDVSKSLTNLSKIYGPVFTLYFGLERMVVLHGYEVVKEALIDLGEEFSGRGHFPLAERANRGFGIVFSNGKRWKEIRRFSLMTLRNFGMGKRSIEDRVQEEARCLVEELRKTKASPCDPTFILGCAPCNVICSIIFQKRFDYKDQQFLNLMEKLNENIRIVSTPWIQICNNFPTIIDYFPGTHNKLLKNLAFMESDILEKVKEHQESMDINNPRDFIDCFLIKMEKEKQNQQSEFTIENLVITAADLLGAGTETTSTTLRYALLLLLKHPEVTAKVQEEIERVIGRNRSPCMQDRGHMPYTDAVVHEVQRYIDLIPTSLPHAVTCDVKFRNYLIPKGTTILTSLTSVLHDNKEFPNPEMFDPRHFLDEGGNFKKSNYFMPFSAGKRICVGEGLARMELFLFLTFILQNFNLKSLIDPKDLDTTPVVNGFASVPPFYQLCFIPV

Compound: CC(C)NC(=O)COc1cccc(-c2nc(Nc3ccc4[nH]ncc4c3)c3ccccc3n2)c1 [belumosudil, 2-{3-[4-(1H-indazol-5-ylamino)-2-quinazolinyl]phenoxy}-N-(propan-2-yl) acetamide]
- metabolism by CYP2D6 [1]: to a lesser extent
- genotoxicity, bacterial mutagenicity (Ames) assay [2]: not genotoxic
- Upper respiratory tract infection [3]: (27) %
- inhibition of UGT1A1 [4]: inhibitor
- inhibition of BCRP [5]: inhibits
- genotoxicity, bone marrow micronucleus assay [6]: not genotoxic
- P-gp substrate status [7]: substrate of P-gp
- inhibition of P-gp ([7]; at clinically relevant concentrations): inhibits
- inhibition of UGT1A9 [8]: inhibitor
- inhibition of CYP2C19 [9]: inhibitor
- doses at which fetal malformations were observed [10]: ≥ 50 mg/kg/day
- inhibition of CYP2D6 [11]: inhibitor
